In patent US20240199546A1, “INHIBITORS OF SOLUTE CARRIER FAMILY 6A MEMBER 19 (SLC6A19) AND METHODS OF USE THEREOF” (Maze Therapeutics, Inc., priority 2022, published 2024):

Target: T1, human SLC6A19 and TMEM27 (Homo sapiens, UniProt Q695T7)
T1 construct: expressed in transfected cells
T1 sequence (Q695T7 1-634): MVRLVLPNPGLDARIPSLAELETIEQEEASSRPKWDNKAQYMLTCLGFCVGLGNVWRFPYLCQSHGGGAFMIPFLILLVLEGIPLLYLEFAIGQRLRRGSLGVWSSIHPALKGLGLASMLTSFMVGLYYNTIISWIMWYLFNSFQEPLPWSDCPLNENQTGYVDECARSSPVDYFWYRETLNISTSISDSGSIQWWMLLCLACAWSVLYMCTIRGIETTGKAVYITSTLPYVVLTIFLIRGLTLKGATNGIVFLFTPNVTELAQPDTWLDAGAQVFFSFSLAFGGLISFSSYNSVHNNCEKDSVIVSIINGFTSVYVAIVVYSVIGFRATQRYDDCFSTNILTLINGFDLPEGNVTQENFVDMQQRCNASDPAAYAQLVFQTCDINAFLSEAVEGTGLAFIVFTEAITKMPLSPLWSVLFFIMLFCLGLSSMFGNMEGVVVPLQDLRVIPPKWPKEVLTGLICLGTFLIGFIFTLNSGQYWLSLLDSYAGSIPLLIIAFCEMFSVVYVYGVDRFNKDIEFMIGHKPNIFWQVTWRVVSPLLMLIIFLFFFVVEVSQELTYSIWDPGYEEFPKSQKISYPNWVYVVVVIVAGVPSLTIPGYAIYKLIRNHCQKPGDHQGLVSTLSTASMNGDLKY
T1 sequence (Q9HBJ8 15-222 partner): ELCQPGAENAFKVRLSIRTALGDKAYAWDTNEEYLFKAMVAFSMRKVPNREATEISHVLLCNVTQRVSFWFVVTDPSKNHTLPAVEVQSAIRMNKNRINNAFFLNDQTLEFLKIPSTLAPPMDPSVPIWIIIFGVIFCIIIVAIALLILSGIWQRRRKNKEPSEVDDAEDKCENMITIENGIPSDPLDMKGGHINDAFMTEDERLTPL
Assay: Radiolabelled (3H) leucine uptake in CHO cells with doxycycline-inducible expression of human SLC6A19 and TMEM27 (Example B-1)
Assay type: cell-based
Settings: CHO cells with doxycycline-inducible expression of human SLC6A19 and TMEM27, read-out: SLC6A19_Radioligand Uptake Assay IC50
Outline: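 CHO cells were induced with doxycycline for 18 h at 37 °C, washed in HBSS, then exposed to compounds for 1 h: 8-point, 3-fold dilutions in duplicate, 0.5% DMSO final. Uptake measured by scintillation counting after 2 h shaking. Activity normalized with positive control as 0% and DMSO as 100%.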

Structure (SMILES)	IC50 [nM]
Cc1cc(COc2cc3[nH]c(CNC(=O)C4OCCC4(F)F)cc3cc2Cl)on1 (stereo not drawn) [Compound 306, N-((5-chloro-6-((3-methylisoxazol-5-yl)methoxy)-1H-indol-2-yl)methyl)-3,3-difluorotetrahydrofuran-2-carboxamide]	633
Cc1cc(COc2cc3[nH]c(CNC(=O)[C@@]4(C)CCCO4)cc3cc2Cl)on1 [Compound 307, (R)-N-((5-chloro-6-((3-methylisoxazol-5-yl)methoxy)-1H-indol-2-yl)methyl)-2-methyltetrahydrofuran-2-carboxamide]	579
O=C(NCc1cc2cc(Cl)c(OCc3cscn3)cc2[nH]1)[C@H]1CCOC1 [Compound 308, (S)-N-((5-chloro-6-(thiazol-4-ylmethoxy)-1H-indol-2-yl)methyl)tetrahydrofuran-3-carboxamide]	168
O=C(CCO)NCc1cc2cc(Cl)c(OCc3cscn3)cc2[nH]1 [Compound 309, N-((5-chloro-6-(thiazol-4-ylmethoxy)-1H-indol-2-yl)methyl)-3-hydroxypropanamide]	1750
Cc1cc(COc2cc3[nH]c(CNC(=O)CC4CCCO4)cc3cc2Cl)on1 (stereo not drawn) [Compound 310, N-((5-chloro-6-((3-methylisoxazol-5-yl)methoxy)-1H-indol-2-yl)methyl)-2-(tetrahydrofuran-2-yl)acetamide]	2520
Cc1cc(COc2cc3[nH]c(CNC(=O)[C@H]4CCCO4)cc3cc2Cl)on1 [Compound 311, (R)-N-((5-chloro-6-((3-methylisoxazol-5-yl)methoxy)-1H-indol-2-yl)methyl)tetrahydrofuran-2-carboxamide]	129
Cc1cc(COc2cc3[nH]c(CNC(=O)[C@@H]4CCCO4)cc3cc2Cl)on1 [Compound 312, (S)-N-((5-chloro-6-((3-methylisoxazol-5-yl)methoxy)-1H-indol-2-yl)methyl)tetrahydrofuran-2-carboxamide]	317
CO[C@@H](C)C(=O)NCc1cc2cc(Cl)c(OCc3cc(C)no3)cc2[nH]1 [Compound 313, (S)-N-((5-chloro-6-((3-methylisoxazol-5-yl)methoxy)-1H-indol-2-yl)methyl)-2-methoxypropanamide]	125
CO[C@H](C)C(=O)NCc1cc2cc(Cl)c(OCc3cc(C)no3)cc2[nH]1 [Compound 314, (R)-N-((5-chloro-6-((3-methylisoxazol-5-yl)methoxy)-1H-indol-2-yl)methyl)-2-methoxypropanamide]	375
O=C(NCc1cc2cc(Cl)c(OCc3cscn3)cc2[nH]1)[C@@H]1CCO1 [Compound 315, (S)-N-((5-chloro-6-(thiazol-4-ylmethoxy)-1H-indol-2-yl)methyl)oxetane-2-carboxamide]	148
O=C(NCc1cc2cc(Cl)c(OCc3cscn3)cc2[nH]1)[C@@H]1CCOC1 [Compound 316, (R)-N-((5-chloro-6-(thiazol-4-ylmethoxy)-1H-indol-2-yl)methyl)tetrahydrofuran-3-carboxamide]	284
Cc1cc(COc2cc3[nH]c(CNC(=O)[C@H]4CCO4)cc3cc2Cl)on1 [Compound 317, (R)-N-((5-chloro-6-((3-methylisoxazol-5-yl)methoxy)-1H-indol-2-yl)methyl)oxetane-2-carboxamide]	119
Cc1nc(COc2cc3[nH]c(CNC(=O)C4(C)CC4)cc3cc2Cl)no1 [Compound 318, N-((5-chloro-6-((5-methyl-1,2,4-oxadiazol-3-yl)methoxy)-1H-indol-2-yl)methyl)-1-methylcyclopropane-1-carboxamide]	226
CC1(C(=O)NCc2cc3cc(Cl)c(OCc4ncon4)cc3[nH]2)CC1 [Compound 319, N-((6-((1,2,4-oxadiazol-3-yl)methoxy)-5-chloro-1H-indol-2-yl)methyl)-1-methylcyclopropane-1-carboxamide]	273
CC1(C(=O)NCc2cc3cc(Cl)c(OCc4sncc4Cl)cc3[nH]2)CC1 [Compound 325, N-((5-chloro-6-((4-chloroisothiazol-5-yl)methoxy)-1H-indol-2-yl)methyl)-1-methylcyclopropane-1-carboxamide]	3730
CC1(C(=O)NCc2cc3cc(F)c(OCc4ccno4)cc3[nH]2)CC1 [Compound 328, N-((5-fluoro-6-(isoxazol-5-ylmethoxy)-1H-indol-2-yl)methyl)-1-methylcyclopropane-1-carboxamide]	147
Cc1cc(COc2cc3[nH]c(CNC(=O)C4(C)CC4)cc3cc2F)no1 [Compound 329, N-((5-fluoro-6-((5-methylisoxazol-3-yl)methoxy)-1H-indol-2-yl)methyl)-1-methylcyclopropane-1-carboxamide]	167
CC1(C(=O)NCc2cc3cc(Cl)c(OCCc4cccnc4)cc3[nH]2)CC1 [Compound 331, N-((5-chloro-6-(2-(pyridin-3-yl)ethoxy)-1H-indol-2-yl)methyl)-1-methylcyclopropane-1-carboxamide]	452
COCCOc1cc2[nH]c(CNC(=O)C3(C)CC3)cc2cc1Cl [Compound 333, N-((5-chloro-6-(2-methoxyethoxy)-1H-indol-2-yl)methyl)-1-methylcyclopropane-1-carboxamide]	206
CC1(C(=O)NCc2cc3cc(Cl)c(OCc4cccnn4)cc3[nH]2)CC1 [Compound 334, N-((5-chloro-6-(pyridazin-3-ylmethoxy)-1H-indol-2-yl)methyl)-1-methylcyclopropane-1-carboxamide]	519
CC1(C(=O)NCc2cc3cc(Cl)c(OCCOC4CC4)cc3[nH]2)CC1 [Compound 335, N-((5-chloro-6-(2-cyclopropoxyethoxy)-1H-indol-2-yl)methyl)-1-methylcyclopropane-1-carboxamide]	126
CC1(C(=O)NCc2cc3cc(Cl)c(OCC4COC4)cc3[nH]2)CC1 [Compound 336, N-((5-chloro-6-(oxetan-3-ylmethoxy)-1H-indol-2-yl)methyl)-1-methylcyclopropane-1-carboxamide]	1190
COc1ccc(COc2cc3[nH]c(CNC(=O)C4(C)CC4)cc3cc2Cl)nn1 [Compound 337, N-((5-chloro-6-((6-methoxypyridazin-3-yl)methoxy)-1H-indol-2-yl)methyl)-1-methylcyclopropane-1-carboxamide]	1190
CC(=O)NCc1cc2cc(Cl)c(OCCOC(F)(F)F)cc2[nH]1 [Compound 338, N-((5-chloro-6-(2-(trifluoromethoxy)ethoxy)-1H-indol-2-yl)methyl)acetamide]	159
Cc1cc(COc2cc(F)c3cc(CNC(=O)C4(C)CC4)[nH]c3c2)on1 [Compound 339, N-((4-fluoro-6-((3-methylisoxazol-5-yl)methoxy)-1H-indol-2-yl)methyl)-1-methylcyclopropane-1-carboxamide]	328
Cc1cc(COc2cc(F)c3cc(CNC(=O)C4(C)CC4)[nH]c3c2)no1 [Compound 340, N-((4-fluoro-6-((5-methylisoxazol-3-yl)methoxy)-1H-indol-2-yl)methyl)-1-methylcyclopropane-1-carboxamide]	277
[2H]C([2H])(NC(C)=O)c1cc2cc(Cl)c(OCc3cc(C)no3)cc2[nH]1 [Compound 345, N-((5-chloro-6-((3-methylisoxazol-5-yl)methoxy)-1H-indol-2-yl)methyl-d2)acetamide]	62.7
